Series [1] in a line: Therapeutic use of melanotropin peptides, overall results (no method given). Format: in vivo. The conditions noted are these: general statement, treatment of diencephalon/hypophysis dysfunction, Multiple Sklerose.
In series [2] the test system is Patienten. Briefly: Subcutaneous injection of the chemically pure substances in a series of patients. Format: in vivo. The conditions noted are these: subkutan. An excerpt: Es wurden ferner die chemisch reinen Substanzen α -MSH und ß -MSH subkutan bei einer Reihe von Patienten gespritzt.
Series [3] in a line: Comparative trials with peptides of six, four or two amino acids of the chain Met-Glu-His-Phe-Arg-Trp-Gly. Format: in vivo. As to the method:
Die Wirkung von etwa 0,3 mg <-MSH entsprach etwa der Wirkung von 0,1 mg dieses Tetrapeptides.

Series [4] concerns Patienten. Nature of the series: Long-term trial, subcutaneous application over 2 - 15 months in a series of patients (MS therapy). Format: in vivo. The source says:
Das Tetrapeptid His-Phe-Arg-Trp wurde in einem Langzeitversuch über 2 - 15 Monate hinweg einer Reihe von Patienten subkutan appliziert. Dabei wurden folgende Ergebnisse erhalten: • Zwei Drittel der Patienten hatten ein subjektives - aber durchaus auch objektivierbares - Gefühl der Frische, höheren Lebensmut und größerer Leistungsfähigkeit.
Verschiedene Anhaltspunkte machten deutlich, daß es sich nicht um einen Cortisoneffekt handelte.
Wenn ein bis zwei Tage lang nicht oder mit Placebos behandelt wurde, trat bei allen Patienten eine objektive Verschlechterung in Richtung der bisherigen Beschwerden auf; auch subjektiv waren alle Patienten eindrucksvoll in der Lage, anhand der Wirkung Spritzen mit Substanz von Placebos zu unterscheiden. Die richtige Dosierung des erfindungsgemäßen Mittels ist kritisch. Uberdosierungen machten sich in Form von erhöhtem Blutdruck, Hitzegefühl, Kurzatmigkeit und bei kreislauflabilen Patienten in deren typischen Beschwerden bemerkbar. Die normale Tagesdosis des Tentrapeptides zur MS-Therapie wurde auf etwa […] festgesetzt, in Einzelfällen - solange es ohne die obengenannten Uberdosierungsphänomene vertragen wird - höher bzw. im Sinne einer Erhaltungsdosis oder bei kreislauflabilen Patienten auch niedriger.

The nature of series [5]: Storage stability (loss of activity on storage). It is filed as physicochemical. The protocol: (§1) Die Erfahrungen mit α-, β- und 4 -MSH bzw. dem erwähnten Tetrapeptid zeigen, daß diese Substanzen ausserordentlich empfindlich und labil sind. […] Bei der Verbindung des Tetrapeptides mit einer Depotsubstanz sollte eine Wirkungsdauer von 12-15 Stunden angestrebt werden.
(§2) Während die Halbwertzeit des reinen Tetrapeptides ca. 1 Woche beträgt, trat bei dem hergestellten Depotpräparat ein geringerer Wirkungsverlust als 10% pro Woche auf. Im Körper hält der Depoteffekt zwischen 6 - 12h an. Als Tagesdosis von dem Depotpräparat empfiehlt sich eine Menge von etwa 1 ml, was etwa 200 Mikrogramm entspricht.
Für das Depotpräparat ist keine gekühlte Lagerung mehr erforderlich.

Series [6] can be described thus: Duration of effect in the body. Format: in vivo. The conditions noted are these: without depot substance. The protocol: as §1, §2
The subject of a further series is menschlichen Auges. Briefly: Eye drops, effect on vision. Format: in vivo, Patienten. The source says:
Diese Fähigkeit zeigte insbesondere das Tetrapeptid His-Phe-Arg-Trp.
Es wurden täglich ca. 2pg pro Auge des Tetrapeptides in physiologischer Kochsalzlösung in der Form von Augentropfen verabreicht. Dabei wurden die vorstehend erwähnten Erfolge erzielt.

Where [7] appears, read: Augentropfen in physiologischer Kochsalzlösung, daily.

As to `N=C(N)NCCC[C@H](NC(=O)[C@H](Cc1ccccc1)NC(=O)[C@@H](N)Cc1cnc[nH]1)C(=O)N[C@@H](Cc1c[nH]c2ccccc12)C(=O)O` [Tetrapeptid His-Phe-Arg-Trp, His-Phe-Arg-Trp], the Ergebnisse entry in series [1] was “besten Ergebnisse”. Besides, in the series with Patienten [2] (patients), the “Wirkung (comparison between the substances)” value is on record as “im wesentlichen die gleiche Wirkung wie α -MSH und β-MSH”. For the same compound, the “Equally effective amount (Wirkung entsprach)” value in series [3] (amounts of the two substances with about the same effect) is on record as ~0,1 mg. For the same compound, the “Positivwirkung und Negativwirkung” value in series [3] (comparison among peptides of the seven-residue chain) is “stärksten Positivwirkung und der schwächsten Negativwirkung”. For the same compound, in the series on Patienten [4] (in vivo), the “Tolerability together with Cortison” value is reported as “gut nebeneinander vertragen”. For the same compound, in the series with Patienten [4] (subkutan, 2 - 15 Monate), the “Krankheitsbild (course)” value is given as “keine Verschlechterungen des Krankheitsbildes auf, sondern einige nachweisbare Verbesserungen”; the “Reports of individual patients” value is on record as “Normalisierung des (bisher zu niedrigen) Blutdrucks, bessere Durchblutung und Beweglichkeit der Extremitäten, Wiederherstellung des Tag-Nacht-Rhythmus (keine Schlafstörungen mehr), bessere Sehfähigkeit, Normalisierung des Zyklus, Minderung von Gleichgewichtsstörungen”; the “Share of patients with Gefühl der Frische, höheren Lebensmut und größerer Leistungsfähigkeit” value was “Zwei Drittel”; the Spastik result is listed as “starkes Nachlasen der Spastik”. Also, the “Absetzen von Cortison” value in the series with Patienten [4] (withdrawal of Cortison under the tetrapeptide) is listed as “wesentlich erleichtert und ohne Rückschläge oder Komplikationen beschleunigt”. Further, the Lagerfähigkeit entry in series [5] (als Reinsubstanz tiefgekühlt) is reported as “lagerfähig”. In addition, the “Loss of Wirksamkeit” value in series [5] (in destilliertem Wasser gelöst, bei Kühlschranktemperatur aufbewahrt) was “etwa die Hälfte”. Moreover, the Halbwertzeit entry in series [5] (pure tetrapeptide, storage) was “ca. 1 Woche”. The “Loss of effect im Körper” value in series [6] was “innerhalb kurzer Zeit”. Besides, in the series with menschlichen Auges (setting [7]), the “Fähigkeit des Patienten in bezug auf die Zusammensetzung von bewegten Bildern” value is reported as “wesentlich verbessert” and the “Wahrnehmung von Lichtreizen” value is reported as “stabilisiert”. In addition, the “Sehfähigkeit des menschlichen Auges” value with menschlichen Auges (in vivo) is “Verbesserung der Sehfähigkeit”.
On to β -Melanotropin [ß -MSH], for which the “kurzzeitiger Besserungseffekt (Kräftigung, Frischegefühl)” value in the series with Patienten [2] (time to onset, at first application possibly only after one to two days) is “innerhalb der ersten Stunde”.

For the origin of these results see patent publication EP0146113A2, “Active agent and therapeutical composition for the treatment of deincephalon failures of nervous deseases and skin diseases” (Aderhold, Dieter, priority 1983, dated 1985).
